Assay results reported in patent US9120820B2, “Fluorescent molecular probes for use in assays that measure test compound competitive binding with SAM-utilizing proteins” (CAYMAN CHEMICAL COMPANY, INCORPORATED, priority 2011, dated 2015).
Each block holds one compound with its values, some of them ahead of it.

Key:
[1] = target: T1, SET7/9 (Homo sapiens, UniProt Q8WTS6); experiment: Sinefungin Probe 1A competition FP assay with SET7/9; type: binding; details: for IC50: read-out: IC50 for displacement of Sinefungin Probe 1A
T1 construct: purchased Cayman 10320
T1 sequence (Q8WTS6 1-366): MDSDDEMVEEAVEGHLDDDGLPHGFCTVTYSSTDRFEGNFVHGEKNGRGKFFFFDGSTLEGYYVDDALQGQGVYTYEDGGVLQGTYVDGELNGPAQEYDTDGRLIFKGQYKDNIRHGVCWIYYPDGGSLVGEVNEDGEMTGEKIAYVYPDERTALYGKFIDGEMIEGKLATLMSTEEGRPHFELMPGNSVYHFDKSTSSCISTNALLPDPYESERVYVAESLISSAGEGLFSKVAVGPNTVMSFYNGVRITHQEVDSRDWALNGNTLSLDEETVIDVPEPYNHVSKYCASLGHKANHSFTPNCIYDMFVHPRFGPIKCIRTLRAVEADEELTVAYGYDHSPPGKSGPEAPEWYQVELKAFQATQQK
Procedure: Methods: Carboxymethyl cellulose-purified SAM, SAH (Cayman Catalog #700145), and sinefungin were diluted in a semi-Log manner in FP buffer (Cayman Catalog #600028). Five microliters of these dilutions were added to the wells of a low-volume, black, 384-well plate (Nunc #264705). […] The assay was allowed to equilibrate at room temperature for 30 minutes in the dark. Fluorescence polarization was measured as above. The experiment was performed two independent times, each in duplicate.

[2] = target: T1, SET7/9; experiment: SET7/9 SAM-Screener high-throughput FP assay, Sinefungin Probe 1A displacement; type: binding; details: SET7/9; sinefungin 50 μM; SAM
Procedure: Methods: A collection of 14,400 compounds from the Maybridge HitFinder collection of compounds was assayed for the displacement of Sinefungin Probe 1A from SET7/9 in a high-throughput manner using the SET7/9 SAM-Screener FP assay Cayman Catalog Item #600490). Thirty microliters of assay buffer (50 mM Tris pH 8.0, 50 mM KCl, 5 mM CHAPS, 2 mM DTT) was added to every well of a black 384-well polystyrene microtiter plate (Thermo-Fisher 364576). To every well, excluding control wells, was added one microliter of a DMSO solution containing a test compound. Control wells received either 1 μl DMSO or 1 μl of a sinefungin solution. The final concentration of sinefungin control or test compounds in the assay was 50 μM or 10 μM, respectively. To every well of the plate was added 10 μl of a SET7/9 solution to give a final assay concentration of 30 nM. After a 15-minute incubation at ambient temperature, 10 μl of Sinefungin Probe 1A solution was added to every well to give a final assay concentration of 10 nM in a total assay volume of 50 μl Samples were analyzed using a Biotek Synergy H4 plate reader in fluorescence polarization mode after a 30-minute incubation at ambient temperature in the dark. Data were analyzed using GeneData (v. 9.01). […]

[3] = target: T1, SET7/9; experiment: Fluorescence polarization saturation binding of fluorescent probe to SET7/9; details: FIG. 11A, FIG. 12
Procedure: Methods: The experiment was performed once, with two replicate wells for all methyltransferases per condition. The sole exception to this is NSD2 (see details below). The assay was performed in a ½ area, black, 96-well plate (Corning #3686) in a final volume of 30 μL. Methyltransferases (Table 1) were serially diluted two-fold in FP buffer (Cayman Catalog #600028) and 15 μL of a given dilution were added per well to the assay plate. Fifteen microliters of sinefungin probe 1A (10 nM) were added to each well, giving a final sinefungin probe 1A concentration of 5 nM. This concentration of sinefungin probe 1A was chosen because it had at least a 10-fold increase in fluorescence (excitation max 575 nm/emission max 615 nm) over background (buffer). The mixture was incubated in the dark at room temperature for 30 minutes and its fluorescence polarization was read using a BioTek Synergy 4.

[4] = target: T1, SET7/9; experiment: Sinefungin Probe 1B displacement FP assay with SET7/9 (Epigenetics Screening Library profiling); type: binding; details: SET7/9, FIG. 11B
Procedure: Profiling of a pre-production version of the Cayman Chemical Epigenetics Screening Library (Cayman Catalog Item #11076) against SET7/9 and GLP was performed in a similar manner using Sinefungin Probe 1B. For GLP, the enzyme concentration was raised to 500 nM to produce a robust signal:noise ratio. Data were analyzed in GraphPad Prism (v. 5.04) and/or GeneData (v. 9.01).
An analog of Sinefungin Probe 1A, Sinefungin Probe 1B, wherein the hexyl portion of the linker moiety is replaced with PEG3 and the Cal Fluor® Red 610 fluorophore moiety is replaced with the “Fluor585” (Texas Red)-derived fluorophore moiety, was tested for the ability to bind several methyltransferases, including SET7/9. […] Similar data have been observed for GLP and G9a.

[5] = 30 nM SET7/9, 10 nM Sinefungin Probe 1A, FIG. 3

SMILES: Nc1ncnc2c1ncn2[C@@H]1O[C@H](CSCC[C@H](N)C(=O)O)[C@@H](O)[C@H]1O [SAH, S-adenosylhomocysteine]
competition with probe binding [1, 5]: did not compete with probe binding at concentrations below 1 μM

inhibition of probe binding (controls) [2]: fully inhibits probe binding
IC50 [1, 5]: 130 nM
SMILES: C[S+](CC[C@H](N)C(=O)O)C[C@H]1O[C@@H](n2cnc3c(N)ncnc32)[C@H](O)[C@@H]1O (stereo partly shown) [SAM, S-Adenosylmethionine, reference compound]

affinity for SET7/9 compared with the other sinefungin probes [3]: essentially identical affinities
SMILES: Nc1ncnc2c1ncn2[C@@H]1O[C@H](C[C@@H](N)CC[C@H](N)C(=O)O)[C@@H](OCc2cnnn2CCCCCCNC(=O)OC2CCN(C(=O)c3ccccc3C3=c4cc5c6c(c4Oc4c3cc3c7c4CCCN7CCC3)CCC[N+]=6CCC5)CC2)[C@H]1O [Sinefungin Probe 1B]

SMILES: Nc1ncnc2c1ncn2[C@@H]1O[C@H](C[C@@H](N)CC[C@H](N)C(=O)O)[C@@H](O)[C@H]1O [sinefungin, Sinefungin]
IC50 [1, 5]: 220 nM
Ki ([1]; SET7/9, read-out: Ki for displacement of Sinefungin Probe 1A): 168 nM
Ki [4]: 120 nM
